Reference: patent publication US20260152527A1, “NOVEL MELANOCORTIN ANALOGS” (priority 2022, published 2026)
pIC50: −log10 of the molar value. Converted amounts (≈) assume the structure as drawn. Where two headings read alike, the source gives them in different places. Positions of bridges follow the written chain, without caps; N, C: chain ends. Non-standard residues stand in square brackets, D forms with d. Residues, ends and D or L forms follow the SMILES beside them. Triazole bridges read from a SMILES are 1,4-linked. *: point of attachment. Benzoyl(3,5-(OH)2) = O=C(c1cc(O)cc(O)c1)*; Lys(N3) = [N-]=[N+]=NCCCC[C@H](N)C(=O)O; dPhe(4-F) = N[C@H](Cc1ccc(F)cc1)C(=O)O; NMeH = CN[C@@H](Cc1c[nH]cn1)C(=O)O; NMeR = CN[C@@H](CCCNC(=N)N)C(=O)O; dNMeF = CN[C@H](Cc1ccccc1)C(=O)O; Aad = N[C@@H](CCCC(=O)O)C(=O)O; Nle = CCCC[C@H](N)C(=O)O; Pra = C#CC[C@H](N)C(=O)O

Tests used:
human recombinant MC1R = target: T1, human recombinant MC1R (Homo sapiens, UniProt Q01726); assay: cyclic AMP (cAMP) functional assay, MC1R stable cell line (CHO-K1); assay type: cell-based; details: for pIC50: cAMP functional assay;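 on all read-outs here: cells with test compound for 60 min at room temperature in buffer containing IBMX, then cAMP quantified by Eu-cAMP tracer and ULight anti-cAMP detection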
T1 construct: host or cells: CHO-K1
T1 sequence (Q01726 whole entry): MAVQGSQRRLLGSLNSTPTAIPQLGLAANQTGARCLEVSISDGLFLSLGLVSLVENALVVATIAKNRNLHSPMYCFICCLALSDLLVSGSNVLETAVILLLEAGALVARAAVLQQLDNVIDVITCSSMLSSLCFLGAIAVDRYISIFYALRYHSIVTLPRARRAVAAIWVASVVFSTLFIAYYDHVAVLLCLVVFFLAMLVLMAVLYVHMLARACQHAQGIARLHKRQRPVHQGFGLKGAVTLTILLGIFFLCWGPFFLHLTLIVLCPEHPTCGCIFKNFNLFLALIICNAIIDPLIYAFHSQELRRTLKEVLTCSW
Protocol: The cyclic AMP (cAMP) functional assay was performed on a human recombinant MC1R stable cell line (CHO-K1, GenScript). The cells were cultured at 37° C. and 5% CO2 with culture medium (90% Ham's F-12K (Kaighn's)+10% FBS+400 μg/mL G418). […] Then, 100 nL of compounds were transferred to the assay plate by the Echo machine. Cells were washed with PBS and then detached by incubation with 0.05% (w/v) Trypsin EDTA at 37° C. for 2 to 5 mins. Cells were collected with stimulation buffer (1×HBSS with 5 mM HEPES+0.2 mM IBMX+0.1% BSA) and 10 ul of cells (the density of 2,500 cells/well) solution was transferred to assay plate, centrifuged at 600 rpm for 3 min and then incubated with compounds at room temperature for 60 min. After that, 5 μL 4×Eu-cAMP tracer solution and 5 μL 4×ULight™-anti-cAMP solution was added into the cells, centrifuged at 600 rpm for 3 min and incubated for 60 min. The cAMP signal was detected with Envision® Multimode Plate Reader (PerkinElmer).

human recombinant MC5R = target: T2, human recombinant MC5R (Homo sapiens, UniProt P33032); assay: Ca2+ signalling functional assay, MC5R stable cell line (CHO-K1/Ga15); assay type: cell-based
T2 construct: host or cells: CHO-K1/Ga15
T2 sequence (P33032 whole entry): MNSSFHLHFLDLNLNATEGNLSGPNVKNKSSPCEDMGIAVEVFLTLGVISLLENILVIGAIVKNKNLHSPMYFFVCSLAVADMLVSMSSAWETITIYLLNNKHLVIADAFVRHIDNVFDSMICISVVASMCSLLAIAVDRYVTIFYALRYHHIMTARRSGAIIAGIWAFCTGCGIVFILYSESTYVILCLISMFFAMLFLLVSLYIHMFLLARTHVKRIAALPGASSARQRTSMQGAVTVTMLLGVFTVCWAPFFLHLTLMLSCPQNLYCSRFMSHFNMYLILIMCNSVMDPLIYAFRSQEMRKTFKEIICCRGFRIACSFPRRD
Protocol: The Ca^2+ signalling functional assay was performed on a human recombinant MC5R stable cell line (CHO-K1/Ga15, GenScript). The cells were cultured at 37° C. and 5% C02 with culture medium (90% Ham's F-12K (Kaighn's)+10% FBS+400 μg/mL G418+100 μg/mL Hygromycin B). Cells were washed with PBS and then detached by incubation with 0.05% (w/v) Trypsin EDTA at 37° C. for 2 to 5 mins. Detached cells were suspended in Ham's F-12K (Kaighn's) (containing 10% FBS) and a 50 μL cell suspension is seeded into each well of a 384-well assay plate at a density of 15,000 cells/well. Cells were allowed to settle overnight at 37° C., 5% CO2. […] Then, 100 nL of compounds were transferred to the compound plate by the Echo machine. Thirty microliter assay buffer was added to the compounds plate and then shaken for 20-40 minutes. The plates were placed on the FLIPR and 15 μL of the compound was added to each well, then calcium flux signal was measured.

human recombinant MC4R = target: T3, human recombinant MC4R (Homo sapiens, UniProt P32245); assay: Ca2+ signalling functional assay, MC4R stable cell line (CHO-K1/Gα15); assay type: cell-based; details: for pIC50: calcium flux functional assay
T3 construct: host or cells: CHO-K1/Gα15
T3 sequence (P32245 whole entry): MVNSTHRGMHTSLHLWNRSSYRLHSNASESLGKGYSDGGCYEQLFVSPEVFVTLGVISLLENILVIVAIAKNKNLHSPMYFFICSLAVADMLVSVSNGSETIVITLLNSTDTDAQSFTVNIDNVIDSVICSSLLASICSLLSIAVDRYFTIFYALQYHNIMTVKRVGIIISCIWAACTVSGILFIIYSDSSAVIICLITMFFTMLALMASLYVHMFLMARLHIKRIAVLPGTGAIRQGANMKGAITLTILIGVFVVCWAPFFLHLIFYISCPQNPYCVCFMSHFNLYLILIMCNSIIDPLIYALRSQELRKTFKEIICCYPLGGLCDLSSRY

[1] = In vivo topical administration tissue distribution study, minipig; details: topical 5 mg/mL BID
Protocol: Animals were acclimated to the study environment for a minimum of 1 week. […] Examinations included, but were not limited to, the skin and external ears, eyes, and abdomen, neurological behavior, and general body condition.
Treatment was administered twice daily (BID) with approximately 6-8 hours between each BID dose, with tissue collection one hour after the last dose. Tissues and blood collected include plasma, aqueous humor, iris/ciliary body, vitreous humor, eye cup containing the retinal pigment epithelium, choroid, sclera, cornea, retina, optic nerve, and brain.
Blood (3 mL) was collected IV or ICAR for terminal collections and placed into K2EDTA tubes for plasma acquisition. […] Blood samples were stored on wet ice for up to 30 minutes prior to plasma processing.
Following euthanasia, eyes were enucleated and rinsed twice with fresh ice-cold PBS. Aqueous humor was removed via a 27 or 30 G syringe, weighed in polypropylene screw cap tubes, and snap frozen by immersing in liquid nitrogen. Eyes were dissected while frozen. All tissues were placed into individual vials, weighed, and snap frozen. The brain was collected and weighed. The hypothalamus, hippocampus and remaining brain was then dissected and weighed. 100-200 mg of each section was placed in pre-weighed polypropylene tubes, reweighed, and snap frozen. The remaining tissue was discarded. All tissues were stored frozen at −80° C. on dry ice.
The observed distribution pattern was consistent with that observed in the rat study. […] As also shown in FIG. 14, all three peptides were detected in the CNS of the animals, with no behavioral or metabolic changes noted in these animals despite the significant exposure. The foregoing results therefor confirm that the peptides disclosed herein can be delivered topically for retinal indications.

[2] = Thermodynamic solubility study in water; assay type: physicochemical
Protocol: The study was conducted in water. Water was added into compound powder to make a 10 mg/mL solution. Sample tubes were shaken at the vibrator for 1 hour (1000 rpm) and then equilibrated overnight at room temperature. Samples were centrifuged at 12000 rpm for 10 min to precipitate undissolved particles. Supernatants were transferred from tubes to a new plate. An aliquot of the supernatant after centrifugation was taken from each well, then analyzed by LC-MS/MS. The concentration of the supernatants was quantified by a standard curve.

[3] = rabbit
Excerpt: (§1) To evaluate the effects of the peptide formulations following topical administration and subconjunctival injection a study in rabbits was undertaken. Animals were acclimated to the study and, upon completion of the acclimation period, each animal was physically examined for determination of suitability for study participation. Animals determined to be in good health were randomized into study groups to achieve averaged mean body weight in each group. (N=24; 3 animals per study group) Animals will be uniquely identified by corresponding cage card number and ear tag.
(§2) For topical ocular dosing the designated peptide formulations (35 L) were administered to the eye of each animal using a calibrated pipette. With the animal manually restrained, the upper eyelid of the eye was gently elevated to expose the cornea. Treatment was then be applied to the cornea without contacting the eye with the pipette tip. One topical drop was applied per eye for four days. Tissue collection (aqueous humor) occurred 30 minutes after last dose.
(§3) A veterinary ophthalmologist performed complete ocular examinations using a slit lamp biomicroscope and indirect ophthalmoscope to evaluate ocular surface morphology and anterior and posterior segment inflammation on all animals prior to injection to serve as a baseline for enrollment into the study as well as on specific study days. Animals were not tranquilized for the examinations.
(§4) At least 1.0 mL of whole blood was drawn from the marginal ear vein or cardiac puncture (terminal bleed only) into K2EDTA tubes for plasma collection. After collection, the tubes were gently mixed by inverting the tubes 5-8 times. Blood samples were stored on wet ice prior to plasma processing. The samples were centrifuged at 4° C. for 10 minutes at 2000 g in a swinging bucket refrigerated centrifuge. Within 20 minutes of the blood collection time, the clear plasma was transferred to prelabelled polypropylene tubes, snap frozen, and stored frozen at approximately −80° C.
(§5) Following euthanasia, eyes were enucleated and marked at the 12:00 position. Aqueous humor was removed via a 27 or 30 gauge syringe following a 10-15 second rinse with PBS and blot with Kimwipe, and snap frozen by immersing in liquid nitrogen. The whole globe was then snap frozen in liquid nitrogen and stored at −80° C. to be held for potential dissection. All samples were placed into individual vials and weighed. The plasma and aqueous humor were collected.
(§6) The peptides were evaluated for their ocular tolerability and pharmacokinetics following repeated (QID×4 days) topical instillation or a single subconjunctival injection in rabbits. The study examined penetration into the anterior chamber and concentrations in the plasma by measuring at a single time point.

human recombinant MC3R = target: T4, human recombinant MC3R (Homo sapiens, UniProt P41968); assay: Ca2+ signalling functional assay, MC3R stable cell line (CHO-K1/Gα15); assay type: cell-based; details: calcium flux functional assay
T4 construct: host or cells: CHO-K1/Gα15
T4 sequence (P41968 whole entry): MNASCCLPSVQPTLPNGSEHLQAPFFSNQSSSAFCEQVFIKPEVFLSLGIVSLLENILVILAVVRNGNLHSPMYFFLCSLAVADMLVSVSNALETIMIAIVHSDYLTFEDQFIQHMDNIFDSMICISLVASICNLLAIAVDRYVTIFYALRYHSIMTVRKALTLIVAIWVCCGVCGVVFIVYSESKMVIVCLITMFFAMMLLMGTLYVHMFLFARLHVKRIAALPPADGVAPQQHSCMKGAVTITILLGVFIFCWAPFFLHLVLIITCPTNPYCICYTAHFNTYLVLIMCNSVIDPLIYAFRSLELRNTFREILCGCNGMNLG
Protocol: The Ca^2+ signalling functional assay was performed on a human recombinant MC3R stable cell line (CHO-K1/Gα15, GenScript). The cells were cultured at 37° C. and 5% CO2 with culture medium (90% Ham's F-12K (Kaighn's)+10% FBS+200 μg/mL Zeocin+100 μg/mL Hygromycin B). Cells were washed with PBS and then detached by incubation with 0.05% (w/v) Trypsin EDTA at 37° C. for 2-5 mins. Detached cells were suspended in Ham's F-12K (Kaighn's) (containing 10% FBS) and a 50 μL cell suspension was seeded into each well of a 384-well assay plate at a density of 10,000 cells/well. Cells were allowed to settle overnight at 37° C., 5% CO2. […] The compounds and reference compound ACTH were diluted in 4 folds starting from 50 uM. Then, 500 nL of compounds were transferred to the compound plate by the Echo machine. 30 uL assay buffer was added into the compounds plate and then shaken for 20-40 minutes. The plates were then placed on the FLIPR Tetra High-Throughput Cellular Screening System (FLIPR®, Molecular Devices) and 15 μL of the compound was added to each well, then calcium flux signal was measured.

in vivo = details: rabbit, topical or ocular, 3 mg/ml solution, 35 L per eye, Concentrations (ng/mL) in Rabbit Aqueous Humor
Excerpt: as §1, §2, §3, §4, §5, §6

SMILES: CCCC[C@H](NC(C)=O)C(=O)N[C@H]1CCCCn2cc(nn2)C[C@@H](C(N)=O)NC(=O)[C@H](Cc2c[nH]c3ccccc23)NC(=O)[C@H](CCCNC(=N)N)NC(=O)[C@@H](Cc2ccc(F)cc2)NC(=O)[C@H](Cc2c[nH]cn2)NC1=O [KR-049, Ac-Nle-[Lys(N3)-His-Dphe(4-F)-Arg-Trp-Pra]-NH2] (Ac-[Nle][Lys(N3)]H[dPhe(4-F)]RW[Pra]-NH2; triazole 2-7)
- EC50 (human recombinant MC1R): 0.019 nM
- pIC50 (human recombinant MC1R): 10.72
- EC50 (human recombinant MC5R): 25.2 nM
- pIC50 (human recombinant MC5R; calcium flux functional assay): 7.60
- EC50 (human recombinant MC4R): 16.1 nM
- melanin binding ([1]; compared with K173 and K174): enhanced melanin binding
- scleral and retinal exposure ([1]; compared with K173 and K174): decreased scleral and retinal exposure
- corneal permeability ([1]; similar to rabbit study): enhanced corneal permeability
- solubility [2]: 9950 µg/mL (≈ 9.33 mM)
- Topical Ocular Permeability (nM ± SEM) [3]: 23.9 ± 10.8 nM

SMILES: CCCC[C@H](NC(C)=O)C(=O)N1CCC(=O)NCCN(CC(=O)N[C@@H](Cc2c[nH]c3ccccc23)C(N)=O)C(=O)[C@H](CCCNC(=N)N)NC(=O)[C@@H](Cc2ccccc2)NC(=O)[C@H](Cc2c[nH]cn2)NC(=O)C1 [KR-029, Ac-Nle-cyc(NGlu-His-DPhe-Arg-NDab)-Trp-NH2]
- pIC50 (human recombinant MC1R): < 7.30
- pIC50 (human recombinant MC5R; calcium flux functional assay): < 5.00
- pIC50 (human recombinant MC4R): < 6.00
- pIC50 (human recombinant MC3R): < 4.30

SMILES: CSCC[C@H](NC(=O)[C@H](CO)NC(=O)[C@H](Cc1ccc(O)cc1)NC(=O)[C@H](CO)NC(C)=O)C(=O)N[C@@H](CCC(=O)O)C(=O)N[C@@H](Cc1c[nH]cn1)C(=O)N(C)[C@@H](Cc1ccccc1)C(=O)N[C@@H](CCCNC(=N)N)C(=O)N[C@@H](Cc1c[nH]c2ccccc12)C(=O)NCC(=O)N[C@@H](CCCCN)C(=O)N1CCC[C@H]1C(=O)N[C@H](C(N)=O)C(C)C [KR-022, Ac-Ser-Tyr-Ser-Met-Glu-His-(NMe-Phe)-Arg-Trp-Gly-Lys-Pro-Val-NH2]
- pIC50 (human recombinant MC1R): < 6.70
- pIC50 (human recombinant MC3R): < 4.30

SMILES: CCCC[C@H](NC(=O)c1cc(O)cc(O)c1)C(=O)N[C@H]1CCCCn2cc(nn2)C[C@@H](C(N)=O)NC(=O)[C@H](Cc2c[nH]c3ccccc23)NC(=O)[C@H](CCCNC(=N)N)NC(=O)[C@@H](Cc2ccccc2)NC(=O)[C@H](Cc2c[nH]cn2)NC1=O [KR-073, HyBA-Nle-[Lys(N3)-His-DPhe-Arg-Trp-Pra]-NH2] ({Benzoyl(3,5-(OH)2)}-[Nle][Lys(N3)]H[dF]RW[Pra]-NH2; triazole 2-7)
- EC50 (human recombinant MC1R): 0.0041 nM
- pIC50 (human recombinant MC1R): 11.39
- EC50 (human recombinant MC5R): 134 nM
- pIC50 (human recombinant MC5R; calcium flux functional assay): 6.87
- EC50 (human recombinant MC4R): 13.9 nM
- solubility ([2]; Table 8, read-out: Solubility): 7690 µg/mL (≈ 6.73 mM)
- Topical Ocular Permeability (nM ± SEM) [3]: 12.3 ± 3.8 nM

SMILES: CCCC[C@H](NC(C)=O)C(=O)N[C@H]1CCCCn2cc(nn2)C[C@@H](C(N)=O)NC(=O)[C@H](Cc2c[nH]c3ccccc23)NC(=O)[C@H](CCCNC(=N)N)NC(=O)[C@@H](Cc2ccccc2)NC(=O)[C@H](Cc2cnc[nH]2)NC1=O [KR-009, Ac-Nle-[Lys(N3)-His-DPhe-Arg-Trp-Pra]-NH2] (Ac-[Nle][Lys(N3)]H[dF]RW[Pra]-NH2; triazole 2-7)
- EC50 (human recombinant MC5R): 140 nM
- pIC50 (human recombinant MC5R; calcium flux functional assay): 6.85
- EC50 (human recombinant MC4R): 45.7 nM
- solubility [2]: > 5000 µg/mL
- Topical Ocular Permeability (nM ± SEM) [3]: 1.43 ± 1.01 nM

SMILES: CCCC[C@H](NC(C)=O)C(=O)N[C@H]1CCCCn2cc(nn2)C[C@@H](C(=O)N[C@@H](CCCCN)C(N)=O)NC(=O)[C@H](Cc2c[nH]c3ccccc23)NC(=O)[C@H](CCCNC(=N)N)NC(=O)[C@@H](Cc2ccc(OC)cc2)NC(=O)[C@H](Cc2c[nH]cn2)NC1=O [KR-058, Ac-Nle-[Lys(N3)-His-DTyr(Me)-Arg-Trp-Pra]-Lys-NH2] (Ac-[Nle][Lys(N3)]H[dY](Me)RW[Pra]K-NH2; triazole 2-7)
- pIC50 (human recombinant MC1R): 8.57
- pIC50 (human recombinant MC5R; calcium flux functional assay): 6.71
- pIC50 (human recombinant MC4R): 6.91
- pIC50 (human recombinant MC3R): < 4.30

SMILES: N=C(N)NCCC[C@@H]1NC(=O)[C@H](Cc2ccccc2)NC(=O)[C@H](Cc2c[nH]cn2)NC(=O)[C@H](CCC(=O)O)NC(=O)CSC[C@@H](C(N)=O)NC(=O)[C@H](Cc2c[nH]c3ccccc23)NC1=O [KR-011, Cyclo(-Ac-Glu-His-Phe-Arg-Trp-Cys)-NH2] ({CH2CO}-EHFRWC-NH2; thioether N-6 (inferred))
- MC5R IC50 (human recombinant MC5R; calcium flux functional assay): Not fit
- pIC50 (human recombinant MC3R): < 4.30

SMILES: CCCC[C@H](NC(C)=O)C(=O)N[C@H]1CCCCn2cc(nn2)C[C@@H](C(N)=O)NC(=O)[C@H](Cc2c[nH]c3ccccc23)NC(=O)[C@H](CCCNC(=N)N)N(C)C(=O)[C@@H](Cc2ccccc2)NC(=O)[C@H](Cc2c[nH]cn2)N(C)C1=O [KR-052, Ac-Nle-[Lys(N3)-NMeHis-DPhe-NMeArg-Trp-Pra]-NH2] (Ac-[Nle][Lys(N3)][NMeH][dF][NMeR]W[Pra]-NH2; triazole 2-7)
- pIC50 (human recombinant MC1R): 8.57
- pIC50 (human recombinant MC5R; calcium flux functional assay): 6.71
- pIC50 (human recombinant MC4R): 6.91
- pIC50 (human recombinant MC3R): < 4.30

SMILES: CCCC[C@H](NC(C)=O)C(=O)N[C@H]1CCCCn2cc(nn2)C[C@@H](C(N)=O)NC(=O)[C@H](Cc2c[nH]c3ccccc23)NC(=O)[C@H](CCCNC(=N)N)NC(=O)[C@@H](Cc2ccccc2)N(C)C(=O)[C@H](Cc2c[nH]cn2)NC1=O [KR-044, Ac-Nle-[Lys(N3)-His-(NMe-Dphe)-Arg-Trp-Pra]-NH2] (Ac-[Nle][Lys(N3)]H[dNMeF]RW[Pra]-NH2; triazole 2-7)
- pIC50 (human recombinant MC1R): < 7.30
- pIC50 (human recombinant MC3R): < 4.30

SMILES: CSCC[C@H](NC(=O)[C@H](CO)NC(=O)[C@H](Cc1ccc(O)cc1)NC(=O)[C@H](CO)NC(C)=O)C(=O)N[C@@H](CCC(=O)O)C(=O)N[C@@H](Cc1c[nH]cn1)C(=O)N(C)[C@H](Cc1ccccc1)C(=O)N[C@@H](CCCNC(=N)N)C(=O)N[C@@H](Cc1c[nH]c2ccccc12)C(=O)NCC(=O)N[C@@H](CCCCN)C(=O)N1CCC[C@H]1C(=O)N[C@H](C(N)=O)C(C)C [KR-025, Ac-Ser-Tyr-Ser-Met-Glu-His-(D-NMePhe)-Arg-Trp-Gly-Lys-Pro-Val-NH2]
- pIC50 (human recombinant MC3R): < 4.30

SMILES: CCCC[C@H](NC(=O)c1cc(O)cc(O)c1)C(=O)N[C@H]1CCCCn2cc(nn2)C[C@@H](C(=O)N[C@@H](CCCC(N)=O)C(N)=O)NC(=O)[C@H](Cc2c[nH]c3ccccc23)NC(=O)[C@H](CCCNC(=N)N)NC(=O)[C@@H](Cc2ccc(F)cc2)NC(=O)[C@H](Cc2c[nH]cn2)NC1=O [KR-071, HyBA-Nle-[Lys(N3)-His-Dphe(4-F)-Arg-Trp-Pra]-Hgln-NH2] ({Benzoyl(3,5-(OH)2)}-[Nle][Lys(N3)]H[dPhe(4-F)]RW[Pra][Aad](NH2)-NH2; triazole 2-7)
- EC50 (human recombinant MC1R): 0.0023 nM
- pIC50 (human recombinant MC1R): 11.64
- EC50 (human recombinant MC5R): 73.9 nM
- pIC50 (human recombinant MC5R; calcium flux functional assay): 7.13
- EC50 (human recombinant MC4R): 103 nM
- level at 0.5 h (in vivo): 2.84 ng/mL
- solubility ([2]; Table 8, read-out: Solubility): 6100 µg/mL (≈ 4.68 mM)
- Topical Ocular Permeability (nM ± SEM) [3]: 2.5 ± 0.2 nM

SMILES: CCCC[C@H](NC(C)=O)C(=O)N[C@H]1CCCCn2cc(nn2)C[C@@H](C(N)=O)NC(=O)[C@H](Cc2c[nH]c3ccccc23)NC(=O)[C@H](CCCNC(=N)N)N(C)C(=O)[C@@H](Cc2ccccc2)NC(=O)[C@H](Cc2c[nH]cn2)NC1=O [KR-045, Ac-Nle-[Lys(N3)-His-DPhe-NMeArg-Trp-Pra]-NH2] (Ac-[Nle][Lys(N3)]H[dF][NMeR]W[Pra]-NH2; triazole 2-7)
- pIC50 (human recombinant MC3R): < 4.30
